Reference: BindingDB's records for doi:10.1016/j.chembiol.2013.07.014 (University of Massachusetts, 2013)
pKi: −log10 of the molar value.

Tests used:
Test in all cases: HIV-1 protease inhibition assay
Conditions in all cases: pH 4.7; 25 °C
[1] = target: T1, Gag-Pol polyprotein [484-582,Q491K,I494L,I497V,V499I,E519D,I534V,R541K,D544E,Q553K,A555V,L573M] (Human immunodeficiency virus, UniProt Q9QBY3, A555V/D544E/E519D/I494L/I497V/I534V/L573M/Q491K/Q553K/R541K/V499I)
T1 construct: 484-582
Description: (§1) The reaction mixture contained 2 µL of protease and 2 µL of inhibitor (or DMSO as a control) and was incubated for 20-30 min at room temperature prior to the substrate cleavage reaction. 150 µL of a 1 µM substrate were used in substrate buffer (0.1 M sodium acetate, 1 M sodium chloride, 1 mM EDTA, 1 MM DTT, 2% DMSO, and 1 mg/mL BSA with an adjusted pH of 4.7).

[2] = target: T2, Gag-Pol polyprotein [484-582,Q491K,I497V,V499I,E519D,G532V,I538V,R541K,D544E,L547P,Q553K,V566A,L573M] (Human immunodeficiency virus, UniProt Q9QBY3, D544E/E519D/G532V/I497V/I538V/L547P/L573M/Q491K/Q553K/R541K/V499I/V566A)
T2 construct: 484-582
Description: as §1

[3] = target: T3, Gag-Pol polyprotein [484-582,Q491K,I497V,V499I,E519D,R541K,D544E,L547P,Q553K,A555V,G557S,I568V,L573M,L574M] (Human immunodeficiency virus, UniProt Q9QBY3, A555V/D544E/E519D/G557S/I497V/I568V/L547P/L573M/L574M/Q491K/Q553K/R541K/V499I)
T3 construct: 484-582
Description: as §1

Compound	pKi [1]	pKi [2]	pKi [3]
CC[C@H](C)CN(C[C@@H](O)[C@H](Cc1ccccc1)NC(=O)O[C@H]1CO[C@H]2OCC[C@H]21)S(=O)(=O)c1ccc(CO)cc1 [(3R,3aS,6aR)-Hexahydrofuro[2,3-b]furan-3-yl ((2S,3R)-3-hydroxy-4-(4-(hydroxymethyl)-N-((S)-2-methylbutyl)phenylsulfonamido)-1-phenylbutan-2-yl)carbamate (10c)]	10.89	10.66	11.40
CC[C@H](C)CN(C[C@@H](O)[C@H](Cc1ccccc1)NC(=O)O[C@H]1CO[C@H]2OCC[C@H]21)S(=O)(=O)c1ccc(OC)cc1 [(3R,3aS,6aR)-Hexahydrofuro[2,3-b]furan-3-yl ((2S,3R)-3-hydroxy-4-(4-methoxy-N-((S)-2-methylbutyl)phenylsulfonamido)-1-phenylbutan-2-yl)carbamate (10b)]	9.99	11.30	10.68
CC[C@H](C)CN(C[C@@H](O)[C@H](Cc1ccccc1)NC(=O)O[C@H]1CO[C@H]2OCC[C@H]21)S(=O)(=O)c1ccc2c(c1)OCO2 [(3R,3aS,6aR)-Hexahydrofuro[2,3-b]furan-3-yl ((2S,3R)-3-hydroxy-4-(N-((S)-2-methylbutyl)benzo[d][1,3]dioxole-5-sulfonamido)-1-phenylbutan-2-yl)carbamate (10d)]	10.46	10.54	10.00
CC[C@H](C)CN(C[C@@H](O)[C@H](Cc1ccccc1)NC(=O)O[C@H]1CO[C@H]2OCC[C@H]21)S(=O)(=O)c1ccc2ncsc2c1 [(3R,3aS,6aR)-Hexahydrofuro[2,3-b]furan-3-yl ((2S,3R)-3-hydroxy-4-(N-((S)-2-methylbutyl)benzo[d]thiazole-6-sulfonamido)-1-phenylbutan-2-yl)carbamate (10e)]	10.60	10.92	10.39
CCC(CC)CN(C[C@@H](O)[C@H](Cc1ccccc1)NC(=O)O[C@H]1CO[C@H]2OCC[C@H]21)S(=O)(=O)c1ccc(N)cc1 [(3R,3aS,6aR)-Hexahydrofuro[2,3-b]furan-3-yl ((2S,3R)-4-(4-amino-N-(2-ethylbutyl)phenylsulfonamido)-3-hydroxy-1-phenylbutan-2-yl)carbamate (11a)]	10.21	10.47	10.66
CC[C@H](C)CN(C[C@@H](O)[C@H](Cc1ccccc1)NC(=O)O[C@H]1CO[C@H]2OCC[C@H]21)S(=O)(=O)c1ccc(N)cc1 [(3R,3aS,6aR)-Hexahydrofuro[2,3-b]furan-3-yl ((2S,3R)-4-(4-amino-N-((S)-2-methylbutyl)phenylsulfonamido)-3-hydroxy-1-phenylbutan-2-yl)carbamate (10a)]	11.22	10.80	10.89
CCC(CC)CN(C[C@@H](O)[C@H](Cc1ccccc1)NC(=O)O[C@H]1CO[C@H]2OCC[C@H]21)S(=O)(=O)c1ccc(CO)cc1 [(3R,3aS,6aR)-Hexahydrofuro[2,3-b]furan-3-yl ((2S,3R)-4-(N-(2-ethylbutyl)-4-(hydroxymethyl)phenylsulfonamido)-3-hydroxy-1-phenylbutan-2-yl)carbamate (11c)]	10.59	11.30	10.15
CCC(CC)CN(C[C@@H](O)[C@H](Cc1ccccc1)NC(=O)O[C@H]1CO[C@H]2OCC[C@H]21)S(=O)(=O)c1ccc(OC)cc1 [(3R,3aS,6aR)-Hexahydrofuro[2,3-b]furan-3-yl ((2S,3R)-4-(N-(2-ethylbutyl)-4-methoxyphenylsulfonamido)-3-hydroxy-1-phenylbutan-2-yl)carbamate (11b)]	11.00	12.00	9.87
CCC(CC)CN(C[C@@H](O)[C@H](Cc1ccccc1)NC(=O)O[C@H]1CO[C@H]2OCC[C@H]21)S(=O)(=O)c1ccc2c(c1)OCO2 [(3R,3aS,6aR)-Hexahydrofuro[2,3-b]furan-3-yl ((2S,3R)-4-(N-(2-ethylbutyl)benzo[d][1,3]dioxole-5-sulfonamido)-3-hydroxy-1-phenylbutan-2-yl)carbamate (11d)]	11.22	10.47	9.98
CCC(CC)CN(C[C@@H](O)[C@H](Cc1ccccc1)NC(=O)O[C@H]1CO[C@H]2OCC[C@H]21)S(=O)(=O)c1ccc2ncsc2c1 [(3R,3aS,6aR)-Hexahydrofuro[2,3-b]furan-3-yl ((2S,3R)-4-(N-(2-ethylbutyl)benzo[d]thiazole-6-sulfonamido)-3-hydroxy-1-phenylbutan-2-yl)carbamate (11e)]	9.97	9.90	10.28
